pIC50: −log10 of the molar value.
Columns and labels:
Type in all cases: binding
[1] = molecular target: T1, XIAP His-BIR2 (124-240/C202A/C213G) (Homo sapiens, UniProt P98170, C202A/C213G); experiment: XIAP-BIR2/SMAC Peptide AlphaScreen Assay; settings: XIAP BIR2, Alphascreen, Table 4; read-out: BIR2 Alpha Screen IC50
T1 construct: additions of His-BIR2 (124-240/C202A/C213G), Biotinylated SMAC peptide
Description: A. XIAP-BIR2/SMAC Peptide AlphaScreen Assay Assays were performed in white, flat-bottom, 384-well ProxiPlates (Perkin Elmer). […] The reaction was incubated at room temperature for 60 minutes. After 60 minutes, 2.5 μL of Alphascreen detection reagent (Perkin Elmer) was added to the reaction mixture and incubated at room temperature in the dark for 120 minutes. The Alphascreen signal generated by the reaction was detected on the Envision Plate Reader. […] Compounds were dissolved at 10 mM in dimethylsulfoxide (DMSO) and evaluated at eleven concentrations. IC50 values were derived by non-linear regression analysis.

[2] = molecular target: N-His-Tb-BIR3(241-356, XIAP) (Homo sapiens, UniProt P98170); experiment: XIAP-BIR3 SMAC Peptide Fluorescence Polarization Assay (FPA)
Chain of N-His-Tb-BIR3(241-356, XIAP) (P98170 241-356): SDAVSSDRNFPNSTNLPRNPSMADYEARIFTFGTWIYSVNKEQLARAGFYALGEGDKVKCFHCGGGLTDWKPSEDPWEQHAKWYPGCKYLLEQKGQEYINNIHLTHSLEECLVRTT

[3] = molecular target: T2, His-BIR3 (241-356, XIAP) (Homo sapiens, UniProt P98170); experiment: XIAP-BIR3/SMAC Homogeneous Time Resolved Fluorescence (HTRF) Assay; settings: Table 4
T2 construct: additions of His-BIR3 (241-356, XIAP), fluorescein labeled SMAC peptide
T2 sequence (P98170 241-356): as above

[4] = molecular target: T3, His-BIR2-3 (125-356, C202A/C213G, XIAP) (Homo sapiens, UniProt P98170, C202A/C213G); experiment: XIAP-BIR2-3 Dimeric SMAC Peptide Homogeneous Time Resolved Fluorescence (HTRF) Assay; settings: XIAP BIR2-3, HTRF, Table 4
T3 construct: additions of His-BIR2-3 (125-356, C202A/C213G, XIAP), fluorescein labeled dimeric SMAC peptide
T3 sequence (P98170 125-356 C202A/C213G): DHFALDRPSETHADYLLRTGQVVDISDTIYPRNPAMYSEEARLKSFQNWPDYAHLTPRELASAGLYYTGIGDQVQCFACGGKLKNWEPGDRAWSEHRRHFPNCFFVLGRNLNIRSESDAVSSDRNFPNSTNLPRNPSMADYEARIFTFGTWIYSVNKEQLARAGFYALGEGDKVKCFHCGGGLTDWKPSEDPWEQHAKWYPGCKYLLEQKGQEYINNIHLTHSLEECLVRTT

T1 sequence (P98170 124-240 C202A/C213G): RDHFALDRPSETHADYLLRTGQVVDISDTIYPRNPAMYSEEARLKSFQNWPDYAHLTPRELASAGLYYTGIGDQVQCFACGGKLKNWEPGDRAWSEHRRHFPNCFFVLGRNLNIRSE

Structure (SMILES)	pIC50 [1]	pIC50 [2]	pIC50 [3]	pIC50 [4]
CN[C@@H](C)C(=O)N[C@H](C(=O)N1C[C@@H]2C[C@H]1C(=O)N[C@@H](Cc1ccc3ccccc3c1)C(=O)N[C@H](C(=O)O)Cc1ccc(cc1)OCc1cn(nn1)[C@H]1C[C@@H](C(=O)N[C@@H](Cc3ccc4ccccc4c3)C(=O)N[C@H](C(=O)NS(=O)(=O)C3CC3)Cc3ccc(cc3)OCc3cn2nn3)N(C(=O)[C@@H](NC(=O)[C@H](C)NC)C(C)(C)C)C1)C(C)(C)C [Compound 147]	> 5.70	> 7.30	> 8.00	8.00 to 9.00
CN[C@@H](C)C(=O)N[C@H](C(=O)N1C[C@@H]2C[C@H]1C(=O)N[C@@H](Cc1ccc3ccccc3c1)C(=O)N[C@H](C(=O)NS(=O)(=O)C1CC1)Cc1ccc(cc1)OCc1cn(nn1)[C@H]1C[C@@H](C(=O)N[C@@H](Cc3ccc4ccccc4c3)C(=O)N[C@H](C(=O)NS(=O)(=O)C3CC3)Cc3ccc(cc3)OCc3cn2nn3)N(C(=O)[C@@H](NC(=O)[C@H](C)NC)C(C)(C)C)C1)C(C)(C)C [Compound 148]	> 5.70	> 7.30	> 8.00	≥ 9.00
CN[C@@H](C)C(=O)N[C@H](C(=O)N1C[C@@H]2C[C@H]1C(=O)N[C@@H](Cc1ccc3ccccc3c1)C(=O)N[C@H](C(=O)O)Cc1ccc(cc1)OCc1cn(nn1)[C@H]1C[C@@H](C(=O)N[C@@H](Cc3ccc4ccccc4c3)C(=O)N[C@H](C(=O)NS(C)(=O)=O)Cc3ccc(cc3)OCc3cn2nn3)N(C(=O)[C@@H](NC(=O)[C@H](C)NC)C(C)(C)C)C1)C(C)(C)C [Compound 1002]	> 5.70	> 7.30		
CN[C@@H](C)C(=O)N[C@H](C(=O)N1C[C@@H]2C[C@H]1C(=O)N[C@@H](Cc1ccc3ccccc3c1)C(=O)N[C@H](C(=O)NS(=O)(=O)c1ccccc1)Cc1ccc(cc1)OCc1cn(nn1)[C@H]1C[C@@H](C(=O)N[C@@H](Cc3ccc4ccccc4c3)C(=O)N[C@H](C(=O)NS(=O)(=O)c3ccccc3)Cc3ccc(cc3)OCc3cn2nn3)N(C(=O)[C@@H](NC(=O)[C@H](C)NC)C(C)(C)C)C1)C(C)(C)C [Compound 1003]	> 5.70	7.00 to 7.30		
CN[C@@H](C)C(=O)N[C@H](C(=O)N1C[C@@H]2C[C@H]1C(=O)N[C@@H](Cc1ccc3ccccc3c1)C(=O)N[C@H](C(=O)NS(C)(=O)=O)Cc1ccc(cc1)OCc1cn(nn1)[C@H]1C[C@@H](C(=O)N[C@@H](Cc3ccc4ccccc4c3)C(=O)N[C@H](C(=O)NS(C)(=O)=O)Cc3ccc(cc3)OCc3cn2nn3)N(C(=O)[C@@H](NC(=O)[C@H](C)NC)C(C)(C)C)C1)C(C)(C)C [Compound 1004]	> 5.70	7.00 to 7.30		
CCS(=O)(=O)NC(=O)[C@@H]1Cc2ccc(cc2)OCc2cn(nn2)[C@H]2C[C@@H](C(=O)N[C@@H](Cc3ccc4ccccc4c3)C(=O)N[C@H](C(=O)NS(=O)(=O)CC)Cc3ccc(cc3)OCc3cn(nn3)[C@H]3C[C@@H](C(=O)N[C@@H](Cc4ccc5ccccc5c4)C(=O)N1)N(C(=O)[C@@H](NC(=O)[C@H](C)NC)C(C)(C)C)C3)N(C(=O)[C@@H](NC(=O)[C@H](C)NC)C(C)(C)C)C2 [Compound 1005]	> 5.70	> 7.30		
CN[C@@H](C)C(=O)N[C@H](C(=O)N1C[C@@H]2C[C@H]1C(=O)N[C@@H](Cc1ccc3ccccc3c1)C(=O)N[C@H](C(=O)NS(=O)(=O)C(F)(F)F)Cc1ccc(cc1)OCc1cn(nn1)[C@H]1C[C@@H](C(=O)N[C@@H](Cc3ccc4ccccc4c3)C(=O)N[C@H](C(=O)NS(=O)(=O)C(F)(F)F)Cc3ccc(cc3)OCc3cn2nn3)N(C(=O)[C@@H](NC(=O)[C@H](C)NC)C(C)(C)C)C1)C(C)(C)C [Compound 1007]	4.92 to 5.70	7.00 to 7.30		
